Experimental data published in US20100286164A1, “SUBSTITUTED ARYL ALKYLAMINO-OXY-ANALOGS AND USES THEREOF” (The Brigham and Women's Hospital, Inc, priority 2007, published 2010).

Assays:
Format in all cases: biochemical
[1] = biological target: T1, γ-secretase (Aβ1-40 production) (Homo sapiens, UniProt P49768); assay: γ-Secretase assay, Aβ1-40 ELISA
T1 construct: made in house; host or cells: S-1 CHO cell line (Chinese hamster ovary)
Procedure: (§1) Purification of γ-Secretase and in Vitro γ-Secretase Assays—The following procedures can be used to isolate γ-secretase and measure its enzymatic activity. The multistep procedure for the high grade purification of human γ-secretase from the S-1 cells is performed as described previously (Fraering, P. C., et al. (2004) Biochemistry 43, 9774-9789). In vitro γ-secretase assays using the recombinant APP-based substrate C100FLAG and the recombinant Notch-based substrate N100FLAG are performed as reported previously (Esler, W. P., Kimberly, W. T., Ostaszewski, B. L., Ye, W., Diehl, T. S., Selkoe, D. J., and Wolfe, M. S. (2002) Proc. Natl. Acad. Sci. U.S.A. 99, 2720-2725, Kimberly, W. T., et al. (2003) Biochemistry 42, 137-144). Basically, the proteolytic reaction mixtures contain C100FLAG and N100FLAG substrate at a concentration of 1 μm, purified γ-secretase solubilized in 0.2% CHAPSO/HEPES, pH 7.5, at 10-fold dilution from stock (stock=the M2 anti-FLAG-eluted fraction in the purification protocol from S-1 cells (Fraering, P. C., et al. (2004) Biochemistry 43, 9774-9789)), 0.025% phosphatidylethanolamine (PE), and 0.10% phosphatidylcholine (PC). All the reactions are stopped by adding 0.5% SDS, and the samples are assayed for Aβ40 and Aβ42 by ELISA as described (Xia, W., Zhang, J., Ostaszewski, B. L., Kimberly, W. T., Seubert, P., Koo, E. H., Shen, J., and Selkoe, D. J. (1998) Biochemistry 37, 16465-16471). The capture antibodies are 2G3 (to Aβ residues 33-40) for the Aβ40 species and 21F12 (to Aβ residues 33-42) for the Aβ42 species.
(§2) Naphthyl Amine Alcohol Analogs and Assay Data—Compounds listed in Table 2 may be assayed as described herein (e.g., in Examples 3 and 4) and the specificity may be evaluated by comparing the relative inhibitions of C-100 Flag and N-100 Flag cleavage. The potency of the inhibitor may be evaluated with an Aβ1-40 ELISA assay (e.g., using an Aβ40 ELISA kit available from Invitrogen, Carlsbad, Calif.). […] The following table indicates the properties of certain compounds of the invention that were assayed as described herein. (INH=Inhibits)

[2] = biological target: T2, γ-secretase (N100FLAG Notch-based substrate) (Homo sapiens, UniProt P49768); assay: In vitro γ-secretase assay, N-100 Flag (Notch-based substrate) cleavage; settings: effect on N-100 Flag cleavage; compounds tested in vitro at 100 μM
T2 construct: made in house; host or cells: S-1 CHO cell line (Chinese hamster ovary)
Procedure: as §1
(§3) Western Blotting and Antibodies—The following assay can be used to determine the extent to which the compounds of interest modulate the cleavage of APP and the Notch receptor. For Western analysis of PS1-NTF, PS1-CTF, Aph1α2-HA, FLAG-Pen-2, and NCT-GST, the samples are run on 4-20% Tris-glycine polyacrylamide gels, transferred to polyvinylidene difluoride, and can be probed with Ab14 (for PS1-NTF, 1:2000; a gift of S. Gandy), 13A11 (for PS1-CTF, 5 μg/ml; a gift of Elan Pharmaceuticals), 3F10 (for Aph1α2-HA, 50 ng/ml; Roche Applied Science), anti-FLAG M2 (for FLAG-Pen-2, 1:1000; Sigma), or αGST antibodies (for NCT-GST, 1:3000; Sigma). Samples from the γ-secretase activity assays (above) are run on 4-20% Tris-glycine gels and can be transferred to polyvinylidene difluoride membranes to detect AICD-FLAG with anti-FLAG M2 antibodies (1:1000, Sigma) and NICD-FLAG with Notch Ab1744 antibody (1:1000, Cell Signaling Technology), which is selective for the N terminus of NICD; the same samples are transferred to nitrocellulose membranes to detect Aβ with the anti-Aβ 6E10 antibody. Levels of AICD-FLAG and NICD-FLAG are estimated by densitometry using AlphaEase/Spot Denso (Alpha Innotech Corp.).
as §2

[3] = biological target: T3, γ-secretase (C100FLAG APP-based substrate) (Homo sapiens, UniProt P49768); assay: In vitro γ-secretase assay, C-100 Flag (APP-based substrate) cleavage; settings: effect on C-100 Flag cleavage; compounds tested in vitro at 100 μM
T3 construct: made in house; host or cells: S-1 CHO cell line (Chinese hamster ovary)
Procedure: as §1, §3, §2

Compound: CC(C)N(CCC(O)c1ccc2ccccc2c1)Cc1ccccc1 (stereo not drawn) [Example 1, 3-(benzyl(isopropyl)amino)-1-(naphthalen-2-yl)propan-1-ol]
- inhibition at 100 µM [1]: 16%
- γ-Secretase Assay N-100 Flag [2]: Enhances (Enh)
- γ-Secretase Assay C-100 Flag [3]: Inhibits (Inh)

Compound: COc1ccc(N2CCN(CCC(O)c3ccc4ccccc4c3)CC2)cc1 (stereo not drawn) [Example 2]
- inhibition at 100 µM [1]: 0%
- γ-Secretase Assay C-100 Flag [3]: No change (NC)

Compound: OC(CCN1CCN(c2ccccc2)CC1)c1ccc2ccccc2c1 (stereo not drawn) [Example 3]
- inhibition at 100 µM [1]: 0%
- γ-Secretase Assay N-100 Flag [2]: Enh

Compound: OC(CCNc1ccccc1)c1ccc2ccccc2c1 (stereo not drawn) [Example 10]
- inhibition at 100 µM [1]: 0%
- γ-Secretase Assay C-100 Flag [3]: Enh

Compound: CCN(CCC(O)c1ccc2ccccc2c1)Cc1ccccc1 (stereo not drawn) [Example 12]
- inhibition at 100 µM [1]: 0%
- γ-Secretase Assay C-100 Flag [3]: Enh

Compound: OC(CCN1CCN(c2cccc(C(F)(F)F)c2)CC1)c1ccc2ccccc2c1 (stereo not drawn) [Example 13]
- inhibition at 100 µM [1]: 38%
- γ-Secretase Assay N-100 Flag [2]: Enh
- γ-Secretase Assay C-100 Flag [3]: Enh

Compound: OC(CCN1CCN(c2ccc(F)cc2)CC1)c1ccc2ccccc2c1 (stereo not drawn) [Example 14, 3-(4-(4-fluorophenyl)piperazin-1-yl)-1-(naphthalen-2-yl)propan-1-ol]
- inhibition at 100 µM [1]: 61%
- γ-Secretase Assay N-100 Flag [2]: Enh
- γ-Secretase Assay C-100 Flag [3]: Inh

Compound: CC(C)N(CCC(O)c1ccc2ccccc2c1)Cc1ccc(Cl)c(Cl)c1 (stereo not drawn) [Example 17]
- inhibition at 100 µM [1]: 60%
- γ-Secretase Assay N-100 Flag [2]: Enh
- γ-Secretase Assay C-100 Flag [3]: Inh

Compound: CC(C)N(CCC(O)c1ccc2ccccc2c1)Cc1ccc(F)c(F)c1 (stereo not drawn) [Example 18]
- inhibition at 100 µM [1]: 64%
- γ-Secretase Assay N-100 Flag [2]: Enh
- γ-Secretase Assay C-100 Flag [3]: Inh

Compound: CC(C)N(CCC(O)c1cccc2ccccc12)Cc1ccccc1 (stereo not drawn) [Example 19]
- inhibition at 100 µM [1]: 46%
- γ-Secretase Assay N-100 Flag [2]: Enh.
- γ-Secretase Assay C-100 Flag [3]: Inh

Compound: CC(C)N(CCC(O)c1ccc2ccccc2c1)c1ccccc1 (stereo not drawn) [Example 20]
- inhibition at 100 µM [1]: 68%
- γ-Secretase Assay N-100 Flag [2]: Inh
- γ-Secretase Assay C-100 Flag [3]: Inh

Compound: COc1ccc(CN(CCC(O)c2ccc3ccccc3c2)C(C)C)cc1 (stereo not drawn) [Example 29]
- inhibition at 100 µM [1]: 55%
- γ-Secretase Assay C-100 Flag [3]: Inh

Compound: CC(C)N(CCC(O)c1ccc(C(F)(F)F)cc1)Cc1ccccc1 (stereo not drawn) [Example 41]
- inhibition at 100 µM [1]: 27%
- γ-Secretase Assay N-100 Flag [2]: Enh

Compound: CN(CCC(O)c1ccc2ccccc2c1)Cc1ccccc1 (stereo not drawn) [Example 44]
- γ-Secretase Assay ELISA % Inhibition [100 μM] Aβ1-40 [1]: 56%
- γ-Secretase Assay N-100 Flag [2]: Enh

Compound: Cc1ccc(C(O)CCN(Cc2ccccc2)C(C)C)cc1F (stereo not drawn) [Example 54]
- inhibition at 100 µM [1]: 29%
- γ-Secretase Assay N-100 Flag [2]: Inh

Compound: CC(C)N(CCC(O)c1cc(F)cc(Cl)c1)Cc1ccccc1 (stereo not drawn) [Example 55]
- inhibition at 100 µM [1]: 30%
- γ-Secretase Assay N-100 Flag [2]: Inh

Compound: Cc1cccc(C)c1C(O)CCN(Cc1ccccc1)C(C)C (stereo not drawn) [Example 56]
- inhibition at 100 µM [1]: 20%
- γ-Secretase Assay N-100 Flag [2]: Inh

Compound: CC(C)N(CCC(O)c1cc(C(F)(F)F)cc(C(F)(F)F)c1)Cc1ccccc1 (stereo not drawn) [Example 57]
- inhibition at 100 µM [1]: 47%
- γ-Secretase Assay N-100 Flag [2]: Inh

Compound: CC(C)N(CCC(O)c1ccc(OC(F)(F)F)cc1)Cc1ccccc1 (stereo not drawn) [Example 58]
- inhibition at 100 µM [1]: 1%

Compound: COc1ccc(C(O)CCN(Cc2ccccc2)C(C)C)cc1OC (stereo not drawn) [Example 59]
- inhibition at 100 µM [1]: 0%

Compound: COc1ccc(C(O)CCN(Cc2ccccc2)C(C)C)cc1F (stereo not drawn) [Example 60]
- inhibition at 100 µM [1]: 0%

Compound: CC(C)N(CCC(O)c1ccccc1CN1CCCCC1)Cc1ccccc1 (stereo not drawn) [Example 61]
- inhibition at 100 µM [1]: 0%

Compound: CC(C)N(CCC(O)c1ccc2c(c1)OCO2)Cc1ccccc1 (stereo not drawn) [Example 62]
- inhibition at 100 µM [1]: 0%

Compound: Cc1ccc(C(O)CCN(Cc2ccccc2)C(C)C)cc1C (stereo not drawn) [Example 63]
- inhibition at 100 µM [1]: 0%

Compound: CC(C)N(CCC(O)c1ccc(C#N)cc1)Cc1ccccc1 (stereo not drawn) [Example 64]
- inhibition at 100 µM [1]: 6%

Compound: CC(C)N(CCC(O)c1ccc2ccccc2c1)Cc1ccc(C(=O)O)cc1 (stereo not drawn) [Example 66]
- inhibition at 100 µM [1]: 2%

Compound: CC(C)N(CCC(O)c1ccc(C(=O)O)cc1)Cc1ccccc1 (stereo not drawn) [Example 67]
- inhibition at 100 µM [1]: 27%

Compound: COc1cccc2cc(C(O)CCN(Cc3ccccc3)C(C)C)oc12 (stereo not drawn) [Example 70]
- inhibition at 100 µM [1]: 0%

Compound: CC(C)N(CC[C@@H](O)c1ccc2ccccc2c1)Cc1ccccc1 [Example 75]
- inhibition at 100 µM [1]: 0%
- γ-Secretase Assay N-100 Flag [2]: Inh

Compound: CC(C)N(CC[C@H](O)c1ccc2ccccc2c1)Cc1ccccc1 [Example 76]
- inhibition at 100 µM [1]: 17%

Compound: OC(CCNc1ccc(Oc2ccccc2)cc1)c1ccc2ccccc2c1 (stereo not drawn) [Example 77]
- inhibition at 100 µM [1]: 48%
- γ-Secretase Assay C-100 Flag [3]: Inh

Compound: Cc1ccc(NCCC(O)c2ccc3ccccc3c2)cc1F (stereo not drawn) [Example 78]
- inhibition at 100 µM [1]: 0%
- γ-Secretase Assay C-100 Flag [3]: Enh

Compound: CCOc1ccc(NCCC(O)c2ccc(F)cc2)cc1 (stereo not drawn) [Example 79]
- inhibition at 100 µM [1]: 0%
- γ-Secretase Assay C-100 Flag [3]: Enh

Compound: COc1ccc(NCCC(O)c2ccc(Cl)cc2)cc1 (stereo not drawn) [Example 80]
- inhibition at 100 µM [1]: 0%
- γ-Secretase Assay C-100 Flag [3]: Enh

Compound: OC(CN1CCN(c2ccccc2)CC1)c1ccc2ccccc2c1 (stereo not drawn) [Example 81]
- inhibition at 100 µM [1]: 0%
- γ-Secretase Assay N-100 Flag [2]: Enh

Compound: COC(CCN(Cc1ccccc1)C(C)C)c1ccc2ccccc2c1 (stereo not drawn) [Example 84]
- inhibition at 100 µM [1]: 51%
- γ-Secretase Assay C-100 Flag [3]: Inh

Compound: CC(C)N(CCC(Oc1ccc(C(F)(F)F)cc1)c1ccc2ccccc2c1)Cc1ccccc1 (stereo not drawn) [Example 85]
- inhibition at 100 µM [1]: 50%

Compound: COC(CCN(Cc1ccccc1)C(C)C)c1ccc2cc(C(O)CCN(Cc3ccccc3)C(C)C)ccc2c1 (stereo not drawn) [Example 86]
- inhibition at 100 µM [1]: 12%

Compound: CC(CN(Cc1ccccc1)C(C)C)C(O)c1ccc2ccccc2c1 (stereo not drawn) [Example 87]
- γ-Secretase Assay ELISA % Inhibition [100 μM] Aβ1-40 [1]: 22%

Compound: CC(CN(Cc1ccccc1)C(C)C)C(O)c1ccc2ccccc2c1 (stereo not drawn) [Example 88]
- γ-Secretase Assay ELISA % Inhibition [100 μM] Aβ1-40 [1]: 66%
- γ-Secretase Assay C-100 Flag [3]: Inh

Compound: C[C@@H](CN1CCN(c2ccc(F)cc2)CC1)[C@H](O)c1ccc2ccccc2c1 [Example 89]
- inhibition at 50 µM [1]: 9%

Compound: C[C@H](CN1CCN(c2ccc(F)cc2)CC1)[C@H](O)c1ccc2ccccc2c1 [Example 90]
- inhibition at 50 µM [1]: 0%
